Measurements published in patent US6525059B1, “Substituted pyrazoles as p38 kinase inhibitors” (G. D. Searle & Company, priority 1998, dated 2003).

What follows are molecules tested against T1, human p38 kinase alpha (Homo sapiens, UniProt Q16539) (assay: p38 kinase in vitro assay, phosphorylation of biotinylated PHAS-I with gamma 32P-ATP). Conditions: @ 1.0 uM.
T1 construct: The coding region of the human p38a cDNA was obtained by PCR-amplification from RNA isolated from the human monocyte cell line THP.1; GST (N); made in house; host or cells: E. coli DH10B
Format: biochemical
Procedure: The ability of compounds to inhibit human p38 kinase alpha was evaluated using two in vitro assay methods. In the first method activated human p38 kinase alpha phosphorylates a biotinylated substrate, PHAS-I (phosphorylated heat and acid stable protein-insulin inducible), in the presence of gamma ^32P-ATP (^32P-ATP). PHAS-I was biotinylated prior to the assay and provides a means of capturing the substrate which is phosphorylated during the assay. p38 Kinase was activated by MKK6. Compounds were tested in 10 fold serial dilutions over the range of 100 μM to 0.001 μM using 1% DMSO. Each concentration of inhibitor was tested in triplicate.
All reactions were carried out in 96 well polypropylene plates. Each reaction well contained 25 mM HEPES pH 7.5, 10 mM magnesium acetate and 50 μM unlabeled ATP. […] The reaction proceeded either for one hour or overnight at 30° C.
Following incubation, 20 μl of reaction mixture was transferred to a high capacity streptavidin coated filter plate (SAM-streptavidin-matrix, Promega) prewetted with phosphate buffered saline. […] Filter plates were air dried and 20 μl of scintillant was added. The plates were sealed and counted.

T1 sequence (Q16539 whole entry): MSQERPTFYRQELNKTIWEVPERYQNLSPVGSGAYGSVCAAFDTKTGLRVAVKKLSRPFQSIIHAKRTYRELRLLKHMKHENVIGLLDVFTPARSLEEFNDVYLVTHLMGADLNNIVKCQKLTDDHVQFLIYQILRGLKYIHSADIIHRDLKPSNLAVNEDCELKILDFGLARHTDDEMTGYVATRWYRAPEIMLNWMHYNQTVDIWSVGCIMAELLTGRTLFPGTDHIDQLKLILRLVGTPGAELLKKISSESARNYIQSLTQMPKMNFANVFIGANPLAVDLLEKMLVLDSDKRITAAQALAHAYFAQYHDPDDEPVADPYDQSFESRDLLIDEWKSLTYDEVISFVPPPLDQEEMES

| P38 alpha kinase % inhib @ conc. [% @ 1.0 uM] | Structure (SMILES) |
| --- | --- |
| 53.0 | N#Cc1ccc(C(=O)NCc2[nH]nc(-c3ccc(F)cc3)c2-c2ccncc2)cc1 [Example B-0001] |
| 71.1 | O=C(NCc1[nH]nc(-c2ccc(F)cc2)c1-c1ccncc1)[C@@H]1C[C@@H]1c1ccccc1 [Example B-0002] |
| 89.0 | COC(=O)C(=O)NCc1[nH]nc(-c2ccc(F)cc2)c1-c1ccncc1 [Example B-0025] |
| 69.0 | O=C(NCc1[nH]nc(-c2ccc(F)cc2)c1-c1ccncc1)c1ccc(OC(F)(F)F)cc1 [Example B-0028] |
| 91.0 | O=C(NCc1[nH]nc(-c2ccc(F)cc2)c1-c1ccncc1)c1cccc2ccccc12 [Example B-0037] |
| 71.0 | O=C(CCC1CC=CC1)NCc1[nH]nc(-c2ccc(F)cc2)c1-c1ccncc1 [Example B-0038] |
| 96.0 | O=C(NCc1[nH]nc(-c2ccc(F)cc2)c1-c1ccncc1)C(F)(F)C(F)(F)C(F)(F)F [Example B-0046] |
| 94.0 | CCC(C(=O)NCc1[nH]nc(-c2ccc(F)cc2)c1-c1ccncc1)c1ccccc1 (stereo not drawn) [Example B-0048] |
| 73 | O=C(NCc1[nH]nc(-c2ccc(F)cc2)c1-c1ccncc1)c1cc(C(F)(F)F)ccc1F [Example B-0050] |
| 96 | O=C(NCc1[nH]nc(-c2ccc(F)cc2)c1-c1ccncc1)C1CCCN1C(=O)C(F)(F)F (stereo not drawn) [Example B-0094] |

Same assay, conditions: @ 1.0 uM; read-out: P38 alpha kinase % inhib @ conc.

| inhibition at 1 µM [%] | Structure (SMILES) |
| --- | --- |
| 91 | COc1cccc(C(=O)NCc2[nH]nc(-c3ccc(F)cc3)c2-c2ccncc2)c1 [Example B-0075] |
| 47 | COC(=O)c1ccc(C(=O)NCc2[nH]nc(-c3ccc(F)cc3)c2-c2ccncc2)cc1 [Example B-0082] |
| 56 | CC(C)[C@H]1CC[C@@H](C)C[C@@H]1OCC(=O)NCc1[nH]nc(-c2ccc(F)cc2)c1-c1ccncc1 [Example B-0084] |
| 91 | COc1ccc(C(=O)NCc2[nH]nc(-c3ccc(F)cc3)c2-c2ccncc2)c(OC)c1 [Example B-0086] |
| 96 | COC(=O)CC(=O)NCc1[nH]nc(-c2ccc(F)cc2)c1-c1ccncc1 [Example B-0091] |
| 97 | O=C(OCc1ccccc1C(=O)NCc1[nH]nc(-c2ccc(F)cc2)c1-c1ccncc1)c1ccccc1 [Example B-0092] |
| 98 | O=C(NCc1[nH]nc(-c2ccc(F)cc2)c1-c1ccncc1)c1cc(F)ccc1F [Example B-0095] |
| 45 | Cc1cc(C)c(S(=O)(=O)NCc2[nH]nc(-c3ccc(F)cc3)c2-c2ccncc2)c(C)c1 [Example B-0109] |
| 97 | O=[N+]([O-])c1ccccc1CS(=O)(=O)NCc1[nH]nc(-c2ccc(F)cc2)c1-c1ccncc1 [Example B-0112] |
| 75 | O=[N+]([O-])c1ccccc1S(=O)(=O)NCc1[nH]nc(-c2ccc(F)cc2)c1-c1ccncc1 [Example B-0113] |
| 79 | O=S(=O)(NCc1[nH]nc(-c2ccc(F)cc2)c1-c1ccncc1)c1cccs1 [Example B-0121] |
| 66 | O=S(=O)(NCc1[nH]nc(-c2ccc(F)cc2)c1-c1ccncc1)c1ccc(Cl)cc1Cl [Example B-0126] |
| 82 | N#Cc1ccccc1S(=O)(=O)NCc1[nH]nc(-c2ccc(F)cc2)c1-c1ccncc1 [Example B-0127] |
| 69 | COc1ccc(OC)c(S(=O)(=O)NCc2[nH]nc(-c3ccc(F)cc3)c2-c2ccncc2)c1 [Example B-0130] |
| 43 | COc1ccc(S(=O)(=O)NCc2[nH]nc(-c3ccc(F)cc3)c2-c2ccncc2)cc1OC [Example B-0131] |
| 51 | O=S(=O)(NCc1[nH]nc(-c2ccc(F)cc2)c1-c1ccncc1)c1ccccc1F [Example B-0133] |
| 78 | O=S(=O)(NCc1[nH]nc(-c2ccc(F)cc2)c1-c1ccncc1)c1ccc(Cl)c(Cl)c1 [Example B-0135] |
| 41 | COc1cc(C)c(S(=O)(=O)NCc2[nH]nc(-c3ccc(F)cc3)c2-c2ccncc2)c(C)c1C [Example B-0137] |
| 86 | O=S(=O)(NCc1[nH]nc(-c2ccc(F)cc2)c1-c1ccncc1)c1ccc(Cl)s1 [Example B-0144] |
| 43 | O=C(NCc1ccccc1)NCc1[nH]nc(-c2ccc(F)cc2)c1-c1ccncc1 [Example B-0151] |

Continued, molecule first:

| Structure (SMILES) | inhibition at 1 µM [%] |
| --- | --- |
| Cc1cc(C)c(C(=O)NCc2[nH]nc(-c3ccc(F)cc3)c2-c2ccncc2)c(C)c1 [Example B-0049] | 88 |
| O=C(NCc1[nH]nc(-c2ccc(F)cc2)c1-c1ccncc1)c1cccnc1Cl [Example B-0053] | 95 |
| O=C(NCc1[nH]nc(-c2ccc(F)cc2)c1-c1ccncc1)c1ccno1 [Example B-0054] | 90 |
| CCOc1ccc2ccccc2c1C(=O)NCc1[nH]nc(-c2ccc(F)cc2)c1-c1ccncc1 [Example B-0059] | 83 |
| O=C(NCc1[nH]nc(-c2ccc(F)cc2)c1-c1ccncc1)c1ccc(C(F)(F)F)cc1F [Example B-0061] | 62 |
| O=C(NCc1[nH]nc(-c2ccc(F)cc2)c1-c1ccncc1)c1ccc(F)cc1C(F)(F)F [Example B-0062] | 94 |
| O=C(NCc1[nH]nc(-c2ccc(F)cc2)c1-c1ccncc1)c1ccccc1 [Example B-0063] | 96 |
| Cc1cccc(C(=O)NCc2[nH]nc(-c3ccc(F)cc3)c2-c2ccncc2)c1 [Example B-0067] | 91 |
| O=C(NCc1[nH]nc(-c2ccc(F)cc2)c1-c1ccncc1)c1cccc(F)c1 [Example B-0069] | 96 |
| COc1cccc(OC)c1C(=O)NCc1[nH]nc(-c2ccc(F)cc2)c1-c1ccncc1 [Example B-0070] | 92 |
| COc1cc(OC)cc(C(=O)NCc2[nH]nc(-c3ccc(F)cc3)c2-c2ccncc2)c1 [Example B-0072] | 77 |
| O=C(NCc1[nH]nc(-c2ccc(F)cc2)c1-c1ccncc1)c1ccccc1F [Example B-0074] | 92 |

Same assay, conditions: @ 10.0 uM; read-out: P38 alpha kinase % inhib @ conc.

| inhibition at 10 µM [%] | Structure (SMILES) |
| --- | --- |
| 72 | CC(=O)Nc1nc(C)c(S(=O)(=O)NCc2[nH]nc(-c3ccc(F)cc3)c2-c2ccncc2)s1 [Example B-0097] |
| 70 | CCCCCCCCCCS(=O)(=O)NCc1[nH]nc(-c2ccc(F)cc2)c1-c1ccncc1 [Example B-0125] |
| 54 | CCCCN(CCCC)c1cccc2c(S(=O)(=O)NCc3[nH]nc(-c4ccc(F)cc4)c3-c3ccncc3)cccc12 [Example B-0139] |
| 40 | O=C(NCc1[nH]nc(-c2ccc(F)cc2)c1-c1ccncc1)Nc1ccc(Oc2ccccc2)cc1 [Example B-0155] |

Same assay, conditions: activated human p38 kinase alpha, PHAS-I substrate, 50 μM unlabeled ATP; read-out: p38 kinase IC50

| IC50 [µM] | Structure (SMILES) |
| --- | --- |
| 3.8 | Cc1n[nH]c(-c2ccccc2O)c1-c1ccncc1 [Example A-16] |
| 2.6 | COc1cc(F)cc(-c2[nH]nc(C)c2-c2ccncc2)c1 [Example A-25, 4-{5-(3-Fluoro-5-methoxyphenyl)-3-methyl-3-methyl-1H-pyrazol-4-yl}pyridine] |

Same assay, conditions: p38α in vitro, PHAS-I assay procedure; read-out: p38^1 IC50

| IC50 [µM] | Structure (SMILES) |
| --- | --- |
| 0.044 | Fc1ccc(-c2n[nH]c(NCCN3CCOCC3)c2-c2ccncc2)cc1 [Example A-218, N-[5-(4-fluorophenyl)-4-(4-pyridinyl)-1H-pyrazol-3-yl]-4-morpholineethanamine] |
| 0.176 | Fc1ccc(CNc2cc(-c3cn(CCN4CCOCC4)nc3-c3ccc(F)cc3)ccn2)cc1 [Example A-276, N-[(4-fluorophenyl)methyl]-4-[3(or 5)-(4-fluorophenyl)-1-[[2-(4-morpholinyl)ethyl]-1H-pyrazol-4-yl]-2-pyridinamine] |
| 0.026 | Fc1ccc(-c2n[nH]cc2-c2ccnc(NC3CCNCC3)c2)cc1 [Example A-277, 4-[3-(4-fluorophenyl)-1H-pyrazol-4-yl]-N-4-piperadinyl-2-pyridinamine] |
| 0.134 | OCCNc1cc(-c2c[nH]nc2-c2ccc(F)cc2)ccn1 [Example A-280] |
| 0.053 | Cn1cc(-c2ccnc(NCCO)c2)c(-c2ccc(F)cc2)n1 [Example A-281, 2-[[4-[3-(4-fluorophenyl)-1-methyl-1H-pyrazol-4-yl]-2-pyridinyl]amino]ethanol] |
| < 0.1 | OCCn1cc(-c2ccnc(NCc3ccc(F)cc3)c2)c(-c2ccc(F)cc2)n1 [Example A-283, 3 (or 5)-(4-fluorophenyl)-4-[2-[[(4-fluorophenyl)methyl]amino]-4-pyridinyl]-1H-pyrazole-1-ethanol] |
| < 0.1 | Fc1ccc(CNc2cc(-c3cn(CCN4CCOCC4)nc3-c3ccc(F)cc3)ccn2)cc1 [Example A-285, N-[(4-fluorophenyl)methyl]-4-[3-(4-fluorophenyl)-1-[2-(4-morpholinyl)ethyl]-1H-pyrazol-4-yl]-2-pyridinamine] |
| < 0.1 | OCCn1cc(-c2ccnc(NCc3ccc(F)cc3)c2)c(-c2ccc(F)cc2)n1 [Example A-289, 3-(4-fluorophenyl)-4-[2-[[(4-fluorophenyl)methyl]amino]-4-pyridinyl]-1H-pyrazole-1-ethanol] |
| 0.73 | O=C(O)CNc1[nH]nc(-c2ccc(F)cc2)c1-c1ccncc1 [Example A-293, N-[5-(4-fluorophenyl)-4-(4-pyridinyl)-1H-pyrazol-3-yl]glycine] |
